Assay results reported in patent publication US20230227466A1, “SUBSTITUTED THIENOPYRIMIDINES THAT INTERACT WITH THE RAS SUPERFAMILY FOR THE TREATMENT OF CANCERS, INFLAMMATORY DISEASES, RASOPATHIES, AND FIBROTIC DISEASE” (SHY Therapeutics, LLC, priority 2020, published 2023).

Columns and labels:
[1] = test system: ERK1/2 phosphorylation in Panc-1 cells; assay: Western ERK1/2 cell-based phosphorylation assay; set-up: species or system human; conditions: at 10 μM, values in brackets < > are activation %, not inhibition
Method: Cell lines: Human tumor-derived pancreatic cancer cell line Panc-1 was purchased from American Type Culture Collection and grown in complete DMEM-High Glucose, supplemented with penicillin (100 U/mL), streptomycin (100 μg/mL), and 10% heat-inactivated FBS at 37° C. in a humidified incubator with 5% CO2.
(§1) Method: Cells were plated at 350000 cells/well density in a 12-well plate, allowed 3 hours to adhere to the plate, then starved in the appropriate medium in the presence of 0.5% FBS overnight. The small molecules to be tested were added to the cells in the final concentration of 10 μM in the presence of 0.3% DMSO for 6 hours incubation at 37° C. For IC50 value determination, serial dilutions of compounds were added to cells under the same conditions. Next, cells were stimulated with 1.5 ng/ml EGF for 15 minutes then cells were lysed with lysis buffer containing 1% Triton X-100, EDTA, and Halt™ Protease & Phosphatase Inhibitor Cocktail (Thermo Scientific). Protein concentration was assessed by BCA protein assay (Thermo Scientific). Phosphorylation level of ERK1/2 was determined by western blot.
(§2) Western blot protocol: Equal amounts of protein (15-50 μg) were separated by SDS-PAGE and transferred to nitrocellulose membranes (Invitrogen by Thermo Fisher Scientific). The membrane was stained with Ponceau S Stain (Boston BioProducts) to verify uniform protein loading. Membranes were blocked with 10% milk and phosphorylation levels of ERK1/2 were assessed by incubating overnight at 4° C. with anti-phospho-p44/42 (Thr202/Tyr204) antibody (Cell Signaling) followed by HRP-conjugated secondary antibody (Jackson Immunoresearch, West Grove, Pa.). Bands were incubated in Amersham ECL Prime Western Blotting Detection Reagent (GE Healthcare) and visualized using the ChemiDoc MP imaging system (Bio-Rad). Protocol for Western AKT cell-based phosphorylation assay

[2] = test system: Akt phosphorylation in Panc-1 cells; assay: Western AKT cell-based phosphorylation assay; set-up: species or system human; conditions: at 10 μM, values in brackets < > are activation %, not inhibition
Method: Human Tumor-Derived Pancreatic Cancer Cell Line Panc-1 was Purchased from
American Type Culture Collection and grown in complete DMEM-High Glucose supplemented with penicillin (100 U/mL), streptomycin (100 μg/mL), and 10% heat-inactivated FBS at 37° C. in a humidified incubator with 5% CO2.
as §1, with “C.” for “C. For IC50 value determination, serial dilutions of compounds were added to cells under the same conditions.”, “Akt” for “ERK1/2”
as §2, with “Akt” for “ERK1/2”, “anti-phospho-Akt (Ser473)” for “anti-phospho-p44/42 (Thr202/Tyr204)”, “(Bio-Rad).” for “(Bio-Rad). Protocol for Western AKT cell-based phosphorylation assay”

SMILES | % inh of ERK1/2 phosphorylation in PANC-1 [1] | % inh of AKT phosphorylation in PANC-1 [2]
COCCn1ccnc1-c1nc(N[C@@H]2CC[C@H](OC)C2)c2c(-c3ccccc3)c(-c3ccn(C)n3)sc2n1 (racemic) [Compound 6, Rac-N-((1R,3S)-3-methoxycyclopentyl)-2-(1-(2-methoxyethyl)-1H-imidazol-2-yl)-6-(1-methyl-1H-pyrazol-3-yl)-5-phenylthieno[2,3-d]pyrimidin-4-amine] | D (76-100% inhibition) | 0 (0% inhibition)
COCCn1ccnc1-c1nc(N[C@@H]2CC[C@H](OC)C2)c2ccsc2n1 (racemic) [Compound 8, Rac-N-((1R,3S)-3-methoxycyclopentyl)-2-(1-(2-methoxyethyl)-1H-imidazol-2-yl)thieno[2,3-d]pyrimidin-4-amine] | 0 (0% inhibition) | 0 (0% inhibition)
CO[C@H]1CC[C@@H](Nc2nc(-c3nccn3C)nc3sccc23)C1 (racemic) [Compound 10, Rac-N-((1R,3S)-3-methoxycyclopentyl)-2-(1-methyl-1H-imidazol-2-yl)thieno[2,3-d]pyrimidin-4-amine] | A (1-25% inhibition) | 0 (0% inhibition)
CO[C@H]1CC[C@@H](Nc2nc(C(N)=O)nc3sccc23)C1 (racemic) [Compound 11, Rac-4-(((1R,3S)-3-methoxycyclopentyl)amino)thieno[2,3-d]pyrimidine-2-carboxamide] | 0 (0% inhibition) | 0 (0% inhibition)
CO[C@H]1CC[C@@H](Nc2nc(C(=O)N3CCOCC3)nc3sccc23)C1 (racemic) [Compound 12, Rac-(4-(((1R,3S)-3-methoxycyclopentyl)amino)thieno[2,3-d]pyrimidin-2-yl)(morpholino)methanone] | 0 (0% inhibition) | 0 (0% inhibition)
CO[C@H]1CC[C@@H](Nc2nc(C(=O)NC(C)C)nc3sccc23)C1 (racemic) [Compound 13, Rac-N-isopropyl-4-(((1R,3S)-3-methoxycyclopentyl)amino)thieno[2,3-d]pyrimidine-2-carboxamide] | 0 (0% inhibition) | 0 (0% inhibition)
COCCNC(=O)c1nc(N[C@@H]2CC[C@H](OC)C2)c2ccsc2n1 (racemic) [Compound 14, rac-4-(((1R,3S)-3-Methoxycyclopentyl)amino)-N-(2-methoxyethyl)thieno[2,3-d]pyrimidine-2-carboxamide] | 0 (0% inhibition) | 0 (0% inhibition)
CO[C@H]1CC[C@@H](Nc2nc(C(=O)Nc3ccccc3)nc3sccc23)C1 (racemic) [Compound 15, rac-4-(((1R,3S)-3-Methoxycyclopentyl)amino)-N-phenylthieno[2,3-d]pyrimidine-2-carboxamide] | 0 (0% inhibition) | 0 (0% inhibition)
CO[C@H]1CC[C@@H](Nc2nc(C(=O)Nc3ccccn3)nc3sccc23)C1 (racemic) [Compound 16, rac-4-(((1R,3S)-3-Methoxycyclopentyl)amino)-N-(pyridin-2-yl)thieno[2,3-d]pyrimidine-2-carboxamide] | 0 (0% inhibition) | 0 (0% inhibition)
CO[C@H]1CC[C@@H](Nc2nc(C(N)=O)nc3sc(-c4ccn(C(C)C)n4)cc23)C1 (racemic) [Compound 17, Rac-6-(1-isopropyl-1H-pyrazol-3-yl)-4-(((1R,3S)-3-methoxycyclopentyl)amino)thieno[2,3-d]pyrimidine-2-carboxamide] | A (1-25% inhibition) | 0 (0% inhibition)
CO[C@H]1CC[C@@H](Nc2nc(C(=O)N3CCCC3)nc3sccc23)C1 (racemic) [Compound 25, Rac-(4-(((1R,3S)-3-Methoxycyclopentyl)amino)thieno[2,3-d]pyrimidin-2-yl)(pyrrolidin-1-yl)methanone] | 0 (0% inhibition) | 0 (0% inhibition)
Cc1c(-c2ccn(C(C)C)n2)sc2nc(-c3nccn3C)nc(NC3CCOC3)c12 (racemic) [Compound 37, rac-6-(1-Isopropyl-1H-pyrazol-3-yl)-5-methyl-2-(1-methyl-1H-imidazol-2-yl)-N-(tetrahydrofuran-3-yl)thieno[2,3-d]pyrimidin-4-amine] | 0 (0% inhibition) | 0 (0% inhibition)
COCC1COCCN1c1nc(-c2nccn2C)nc2sc(-c3ccn(C(C)C)n3)c(C)c12 (racemic) [Compound 41, rac-4-(6-(1-Isopropyl-1H-pyrazol-3-yl)-5-methyl-2-(1-methyl-1H-imidazol-2-yl)thieno[2,3-d]pyrimidin-4-yl)-3-(methoxymethyl)morpholine] | 0 (0% inhibition) | 0 (0% inhibition)
COCC1CN(c2nc(-c3nccn3C)nc3sc(-c4ccn(C(C)C)n4)c(C)c23)CCO1 (racemic) [Compound 45, rac-4-(6-(1-Isopropyl-1H-pyrazol-3-yl)-5-methyl-2-(1-methyl-1H-imidazol-2-yl)thieno[2,3-d]pyrimidin-4-yl)-2-(methoxymethyl)morpholine] | B (26-50% inhibition) | <D>
Cc1c(-c2ccn(C(C)C)n2)sc2nc(-c3nccn3C)nc(NCCC3CCC(=O)N3)c12 (racemic) [Compound 56, rac-5-(2-((6-(1-Isopropyl-1H-pyrazol-3-yl)-5-methyl-2-(1-methyl-1H-imidazol-2-yl)thieno[2,3-d]pyrimidin-4-yl)amino)ethyl)pyrrolidin-2-one] | 0 (0% inhibition) | 0 (0% inhibition)
CO[C@@H]1CC[C@H]1CNc1nc(-c2nccn2C)nc2sc(-c3ccn(C(C)C)n3)c(C)c12 (racemic) [Compound 61, rac-6-(1-Isopropyl-1H-pyrazol-3-yl)-N-(((1S,2R)-2-methoxycyclobutyl)methyl)-5-methyl-2-(1-methyl-1H-imidazol-2-yl)thieno[2,3-d]pyrimidin-4-amine] | D (76-100% inhibition) | 0 (0% inhibition)
Cc1c(-c2ccn(C(C)C)n2)sc2nc(-c3nccn3C)nc(N3CCC(COC(C)C)C3)c12 (racemic) [Compound 62, rac-4-(3-(Isopropoxymethyl)pyrrolidin-1-yl)-6-(1-isopropyl-1H-pyrazol-3-yl)-5-methyl-2-(1-methyl-1H-imidazol-2-yl)thieno[2,3-d]pyrimidine] | D (76-100% inhibition) | B (26-50% inhibition)
COC1CCCN(c2nc(-c3ccccn3)nc3sc(-c4ccn(C(C)C)n4)c(C)c23)C1 (racemic) [Compound 70, Rac-6-(1-Isopropyl-1H-pyrazol-3-yl)-4-(3-methoxypiperidin-1-yl)-5-methyl-2-(pyridin-2-yl)thieno[2,3-d]pyrimidine] | 0 (0% inhibition) | 0 (0% inhibition)
COCC1CCN(c2nc(-c3ccccn3)nc3sc(-c4ccn(C(C)C)n4)c(C)c23)C1 (racemic) [Compound 71, Rac-6-(1-Isopropyl-1H-pyrazol-3-yl)-4-(3-(methoxymethyl)pyrrolidin-1-yl)-5-methyl-2-(pyridin-2-yl)thieno[2,3-d]pyrimidine] | D (76-100% inhibition) | D (76-100% inhibition)
